# The source made the active and inactive calls. The rule behind the calls is not given here.
# What was measured:
# MO/Mphi [1] = experiment: Concentration that results in 50% death of MO/Mphi cells infected with HIV-1 ADA strain; no toxicity was observed; assay type: functional, cell-based; conditions: Homo sapiens
# MO/Mphi [2] = experiment: Concentration that provides 50% protection in the MO/Mphi cells infected with HIV-1 ADA strain; assay type: functional, cell-based; conditions: Homo sapiens
# MT4 [3] = experiment: Concentration that provides 50% protection in the MT-4 cells infected with AZT-resistant HIV-1 6R strain; assay type: functional, cell-based; conditions: Homo sapiens
# PBL [4] = experiment: Concentration that provides 50% protection in the PBL cells infected with HIV-1 BAKI strain; assay type: functional, cell-based; conditions: Homo sapiens
# PBL [5] = experiment: Concentration that results in 50% death of PBL cells infected with HIV-1 VIHU strain; no toxicity was observed; assay type: functional, cell-based; conditions: Homo sapiens
# PBL [6] = experiment: Concentration that results in 50% death of PBL cells infected with HIV-1 BAKI strain; no toxicity was observed; assay type: functional, cell-based; conditions: Homo sapiens
# CEM-SS = experiment: Concentration that provides 50% protection in the CEM-SS cells infected with HIV-2 strain; IA means inactive; assay type: functional, cell-based; conditions: Homo sapiens
# MT4 [7] = experiment: Concentration that results in 50% death of MT-4 cells infected with SIV strain; no toxicity was observed; assay type: functional, cell-based; conditions: Homo sapiens
# MT4 [8] = experiment: Concentration that provides 50% protection in the MT-4 cells infected with HIV-1 IIIBstrain; assay type: functional, cell-based; conditions: Homo sapiens
# PBL [9] = experiment: Concentration that provides 50% protection in the PBL cells infected with HIV-1 WEJO strain; assay type: functional, cell-based; conditions: Homo sapiens
# MT4 [10] = experiment: Concentration that results in 50% death of MT-4 cells infected with pyridinone-resistant HIV-1 A17 strain; no toxicity was observed; assay type: functional, cell-based; conditions: Homo sapiens
# MT4 [11] = experiment: Concentration that provides 50% protection in the MT-4 cells infected with pyridinone-resistant HIV-1 A17 strain; assay type: functional, cell-based; conditions: Homo sapiens
# MO/Mphi [12] = experiment: Concentration that results in 50% death of MO/Mphi cells infected with HIV-1 Ba-L strain; no toxicity was observed; assay type: functional, cell-based; conditions: Homo sapiens
# MT4 [13] = experiment: Concentration that results in 50% death of MT-4 cells infected with HIV-1 IIIB strain; no toxicity was observed; assay type: functional, cell-based; conditions: Homo sapiens
# MO/Mphi [14] = experiment: Concentration that provides 50% protection in the MO/Mphi cells infected with HIV-1 Ba-L strain; assay type: functional, cell-based; conditions: Homo sapiens
# MT4 [15] = experiment: Concentration that results in 50% death of MT-4 cells infected with AZT resistant HIV-1 6R strain; no toxicity was observed; assay type: functional, cell-based; conditions: Homo sapiens
# MT4 [16] = experiment: Concentration that provides 50% protection in the MT-4 cells infected with SIV strain; assay type: functional, cell-based; conditions: Homo sapiens
# PBL [17] = experiment: Concentration that results in 50% death of PBL cells infected with HIV-1 WEJO strain; no toxicity was observed; assay type: functional, cell-based; conditions: Homo sapiens
# MT4 [18] = experiment: Concentration that results in 50% death of MT-4 cells infected with Nevirapine resistant HIV-1 N119 strain; no toxicity was observed; assay type: functional, cell-based; conditions: Homo sapiens
# [19] = target: Human immunodeficiency virus type 1 reverse transcriptase (Human immunodeficiency virus 1, UniProt Q72547); experiment: Inhibitory activity against HIV-1 reverse transcriptase
# PBL [20] = experiment: Concentration that provides 50% protection in the PBL cells infected with HIV-1 VIHU strain; assay type: functional, cell-based; conditions: Homo sapiens
# MT4 [21] = experiment: Concentration that results in 50% death of MT-4 cells infected with HIV-1 6S strain; no toxicity was observed; assay type: functional, cell-based; conditions: Homo sapiens
# MT4 [22] = experiment: Concentration that provides 50% protection in the MT-4 cells infected with AZT-resistant HIV-1 6S strain; assay type: functional, cell-based; conditions: Homo sapiens
# MT4 [23] = experiment: Concentration that provides 50% protection in the MT-4 cells infected with nevirapine-resistant HIV-1 N119 strain; assay type: functional, cell-based; conditions: Homo sapiens
structure (smiles),measurement,setting,value
CCCCCC=C(c1cc(Br)c(OC)c(C(=O)OC)c1)c1cc(Br)c(OC)c(C(=O)OC)c1,IC50,MO/Mphi [1],> 200 µM
same,EC50,MO/Mphi [2],1.85 µM
same,EC50,MT4 [3],6 µM
same,EC50,PBL [4],15.2 µM
same,IC50,PBL [5],> 100 µM
same,IC50,PBL [6],> 100 µM
same,IA,CEM-SS,inactive
same,IC50,MT4 [7],> 200 µM
same,EC50,MT4 [8],16 µM
same,EC50,PBL [9],10.2 µM
same,IC50,MT4 [10],> 200 µM
same,EC50,MT4 [11],14 µM
same,IC50,MO/Mphi [12],> 200 µM
same,IC50,MT4 [13],> 200 µM
same,EC50,MO/Mphi [14],5.5 µM
same,IC50,MT4 [15],> 200 µM
same,EC50,MT4 [16],136 µM
same,IC50,PBL [17],> 100 µM
same,IC50,MT4 [18],> 200 µM
same,IC50,[19],0.38 µM
same,EC50,PBL [20],24.9 µM
same,IC50,MT4 [21],> 200 µM
same,EC50,MT4 [22],0.56 µM
same,EC50,MT4 [23],151 µM

# Source: ChEMBL document CHEMBL1149920, “Synthesis and biological evaluation of an alkenyldiarylmethane (ADAM) which acts as a novel non-nucleoside HIV-1 reverse transcriptase inhibitor” (Bioorg Med Chem Lett, 1995)
